Values joined by “and” are separate entries in the source; they are usually repeats but may differ in a detail not shown here. Identical values can stand only once.
Conditions: Liquid

CCCCCCCCCCCCCCCCCCCCC [heneicosane]
Conditions	vapor or sublimation pressure [kPa]
351.54 K	0.000396
361.52 K	0.000971
371.42 K	0.0022
381.65 K	0.00498
391.86 K	0.0106
402.05 K	0.0213
422.19 K	0.0751
432.27 K	0.133
442.3 K	0.228
452.22 K	0.378
461.96 K	0.611

CCCCCCCCCCCCCCCCCCCCCCCCCCCCCC [triacontane]
Conditions	vapor or sublimation pressure [kPa]
432.36 K	0.00115
432.37 K	0.00113
442.48 K	0.00233
452.32 K	0.00457
452.34 K	0.00451

CCCCCCCCCCCCCCCCCCCCCCC [tricosane]
Conditions	vapor or sublimation pressure [kPa]
412.18 K	0.0129
422.26 K	0.0248
422.29 K	0.0247
432.34 K	0.0461
442.33 K	0.0839
452.22 K	0.143
461.99 K	0.242

CCCCCCCCCCCCCCCCCCCCCCCCCCC [heptacosane]
Conditions	vapor or sublimation pressure
401.68 K	0.000592 kPa
401.69 K	0.00059 kPa
411.78 K	0.00129 kPa
411.81 K	0.0013 kPa
421.93 K	0.00269 kPa
421.95 K	0.00272 kPa
432.03 K	0.00556 kPa
442.18 K	0.011 kPa
452.27 K	0.0214 kPa
462.27 K	0.0405 kPa and 0.0401 kPa

CCCCCCCCCCCCCCCCCCCCCCCCC [pentacosane]
Conditions	vapor or sublimation pressure
381.69 K	0.000331 kPa
391.91 K	0.000783 kPa
402.03 K	0.00178 kPa
411.75 K	0.00383 kPa
411.78 K	0.00383 kPa
422.02 K	0.00802 kPa
432.21 K	0.0158 kPa
442.33 K	0.0296 kPa
442.34 K	0.0299 kPa
452.24 K	0.0541 kPa
452.25 K	0.0534 kPa
461.95 K	0.0926 kPa
461.98 K	0.0923 kPa and 0.0938 kPa

CCCCCCCCCCCCCCCCCCCCCCCCCCCCC [nonacosane]
Conditions	vapor or sublimation pressure
422.1 K	0.00097 kPa and 0.000971 kPa
432.12 K	0.00206 kPa
442.17 K	0.00421 kPa
442.19 K	0.00417 kPa
452.2 K	0.00824 kPa
452.23 K	0.00819 kPa

Source: the NIST ThermoML archive (doi:10.1021/je050182i)
